The data set deals with rabbit VX2 liver cancer model. In words: 18F-FCH PET/CT imaging of residual liver after first-stage ALPPS. It is filed as in vivo. The settings on record: ALPPS group. From the text: using incision and fragmentation method for liver cancer tissues; first inoculating a VX2 tumor strain into the muscle outside the rabbit hind leg after passage, wherein the tumor grows to a diameter of 2.0-3.0 cm after 3 weeks; removing the tumor in the muscle of the rabbit hind, eliminating the necrotic tissue, selecting fish-like tissue at the edge of the tumor, and using ophthalmic scissors to cut the tumor tissue into tissue blocks of 1 mm3, and washing repeatedly with saline and putting in a sterile Petri dish for use; putting an experimental rabbit into general anesthesia (method of anesthesia: intramuscular injection of Shutai 1 ml) and fixing it on an animal operating table in supine position; performing skin preparation, disinfection, and spreading sterile surgical scarves on a surgical region of a rabbit abdomen; injecting lidocaine into linea alba 1 cm below xiphoid process for local anesthesia, and making a midline incision of 4 to 5 cm in an upper abdomen and cutting abdominal wall layer by layer to expose a left lateral lobe of a liver; cutting a thicker liver lobe to form a hole passage of about 3 mm×3 mm, and implanting 3-5 tumors into it, then filling liver incision with gelatin sponge particles and pressing to stop bleeding, followed by suturing the incision and closing the abdomen.
two weeks after implanting the rabbit liver with the VX2 tumor strain, performing the first stage of ALPPS (i.e. associating liverpartition and portal vein ligation for staged hepatectomy) on tumor-bearing rabbits;
dividing the tumor-bearing rabbits randomly into an ALPPS group (the left branch of the portal vein of the liver is ligated, and the liver parenchyma is dissected along the ischemic line between the left middle lobe of the liver and the right lobe of the liver) and a Sham group (i.e., a sham operation group, no portal vein ligation and liver dissection); fasting rabbits in the ALPPS group for 12 hours before surgery, and fixing on the table in the supine position after general anesthesia, and performing skin preparation in the surgical region; injecting lidocaine into the left under the xiphoid process, opening the abdomen after anesthesia around the incision with an incision length of about 5-7 cm, exposing and separating the left branch of the portal vein and ligating with 4-0 surgical sutures, then after an ischemic line between the left and right liver is formed, using the surgical scissors to cut off the liver parenchyma along the ischemic line; filling the partition with gel sponge particles for hemostasis, after no obvious bleeding, closing the abdominal wall incision layer by layer, closing the abdominal cavity, and disinfecting the incision with iodophor. […]

Each structure is given as a SMILES string.

Regarding `C[N+](C)(C[18F])CCO` [18 F-FCH, [18 F] fluoromethylcholine], under “after 14 days”, the “18 F-FCH intake in the residual liver” value was “decreases slightly”. Moreover, the “18 F-FCH uptake in the residual liver tissue” value is given as “increases rapidly” (first 3 days after surgery) and “significant high uptake” (from the 1st postoperative day, PET/CT 1 h after 37 MBq/kg i.v.). In addition, the “time at which 18 F-FCH uptake reaches a peak” value (residual liver, days after surgery) is listed as “around 7 days”.

Values taken from patent publication US11123033B2, “Molecular imaging method for evaluating liver regeneration capacity after ALPPS operation” (Harbin Medical University, priority 2019, dated 2021).
